{"source": "patent US11332483B2", "about": "“Naphthoquinone containing gold carbene complexes and methods of uses thereof” (BOARD OF REGENTS, THE UNIVERSITY OF TEXAS SYSTEM, priority 2017, dated 2022)", "key": {"[1]": {"tested_on": "A2780 ovarian (wt-p53, platinum sensitive)", "test": "Cell proliferation (MTT) assay in A2780 ovarian cells", "format": "cell-based", "details": "Table 3; error is standard error of the mean", "procedure": "Further anti-proliferation studies were carried out with complex 1 and its naphthoquinone component 4[H][Cl] using the following cell lines: A2780 ovarian (a wt-p53 cell line sensitive to platinum treatment), 2780CP ovarian (isogenic to A2780 but expressing multi-drug resistance (MDR)), and PC-3 prostate (p53 null) (Table 3).\nCells were harvested and seeded into 96-well culture plates (Costar 07-200-90) in 100 μL of culture media. They were allowed to incubate overnight at 37° C. in the presence of 5% CO2. A549 was seeded at a density of 1000 cells/well, A2780 at 2500 cells/well, A2780CP at 3000 cells/well, and PC-3 at 2000 cells/well. The next day, appropriate serial dilutions of drug stocks in culture media were made. To each well of a 96 well plate was added 100 μL of the appropriate solution. After a total of three days, a […] aliquot of 3 mg/mL tetrazolium dye, 344,5-dimethylthiazol-2-yl)-2,5-diphenyltetrazolium bromide (Alfa Aesar L11939) was added to each well, followed by a 4 hr incubation period at 37° C. The medium was then removed, the resulting formazan was dissolved in […] DMSO and the respective absorbances were measured at 560-650 nm using a microplate reader (Molecular Devices, Sunnyvale, Calif.). Absorbance values were corrected for background and then normalized to wells containing untreated cells to allow for plate-to-plate comparisons. […]"}, "zebrafish embryos/larvae": {"tested_on": "zebrafish embryos/larvae", "procedure": "First, zebrafish embryos were divided into 7 groups at an average of 65 embryos per group. […] Briefly, live human lung cancer cells (A549) were labeled with CM-DiI (red) and only live cells were transplanted via injection into the perivitelline space of 30 zebrafish embryos 24 hours post fertilization (hpf) (Sittaramane et al., 2015; Veinotte et al., 2014; Xie et al., 2015). Tumor inoculated zebrafish embryos were allowed to grow for one day till 48 hpf. This allows for establishment of the cancer cells in the host zebrafish embryos.\nThe embryonic development of zebrafish embryos was monitored at 48 hpf and 72 hpf to record the number of dead embryos."}, "A549 lung cancer cells": {"tested_on": "A549 lung cancer cells", "test": "ICP-MS detection of intracellular Au (cellular uptake)", "details": "A549 cells, in words", "procedure": "Roughly 7−8×10^6 cells were grown to 70-80% confluence in T-75 cell culture flasks (Thermo 130190) and treated with respective compound in RPMI medium supplemented with 10% FBS and antibiotics for the desired incubation time. The medium was then removed and cells were washed with 8 mL 1× warm PBS. 2 mL 1×PBS was then added to each flask, and the cells were removed by scraping. Each cell suspension was then pipetted into a clean, labeled 15 mL centrifuge tube (Thermo 339650). Cells were pelleted by centrifuging at 1,000 rpm for 5 min in an Eppendorf 5804 with a swing-bucket rotor. The supernatant was removed by vacuum aspiration, and the pellet was resuspended in 50 μL autoclaved deionized water. Suspension/lysates were then kept at −80° C. until further use. After thawing, the lysates were then sonicated using a Branson Digital Sonifier, and 5 μL aliquots were taken for determination of protein content of the sample. Lysates were digested with 80 μL aqua regia and heated to 65° C. for 1 h. Digested lysates were diluted with 4 mL 3% Trace Metal Grade HCl and gold content was measured on a Perkin Elmer NexION 300× set to detect gold at 197 m/z. Gold concentrations were quantified using the linear range of a standard curve generated by serial dilution of an ICP-MS gold standard (Ricca MSAU1KH-100) in 3% HCl. Values were then normalized to protein content as determined using a Modified Lowry Protein Assay Kit (Thermo 23240) and known concentrations of bovine serum albumin (Fisher 9048-46-8).\nThe Modified Lowry Assay was used to determine the protein content of each sample for normalization purposes. The standard curve for each run was made from a 2-fold serial dilution of fresh 5 mg/mL BSA solution. Aliquots were diluted to within the linear range of the standard curve using autoclaved DI water, and subjected to the Modified Lowry Assay in round-bottomed 96-well clear plates (Fisher 12565500). […] All other aspects of the procedure were as detailed in the microplate procedure instructions that come with the kit."}, "[2]": {"test": "Electrochemical analysis (differential pulse voltammetry) in DMSO", "format": "physicochemical", "details": "0.1M [N(nBu)4][PF6], 0.1 mM analyte, vs SCE", "procedure": "[Cl] (Guth et al., 2011; Gómez et al., 2003).\n1,3-Dimesitylnapthoquinimidazolium chloride (Sanderson et al., 2006; Tennyson et al., 2010), (1,3-dimesityl-4,5-naphthoquino-imidazol-2-ylidene)-silver(I) chloride (Sanderson et al., 2006; Tennyson et al., 2010), (C4H2S)AuCl (Hashmi, et al., 2010) were prepared according to the literature procedures. All other reagents were purchased from commercial sources and used as received, including: [((CH3)3Si)2N]Na (NaHMDS) and silver(I) oxide. CD2Cl2 (99.9%) was purchased from Acros Laboratories in glass ampules and used as received. Solvents were either dried with a solvent purification system from the Inert Innovative Technology, Inc. (dichloromethane, diethyl ether, hexanes, tetrahydrofuran and toluene) or freshly distilled over 3 Å molecular sieves and degassed using three consecutive freeze-pump-thaw cycles prior to use. UV-vis spectra were obtained at ambient temperature with a Hewlett-Packard 8452A diode array spectrophotometer with molar absorptivities reported in M^−1 cm^−1. ^1H and ^13C NMR spectra were recorded on Bruker 300 MHz spectrometer. Spectra were referenced to the residual solvent as an internal standard, for ^1H NMR: CD2Cl2, 5.32 ppm and ^13C NMR: CD2Cl2, 53.84 ppm. High-resolution mass spectra (HRMS) were obtained with an Agilent Technologies 6530 Accurate Mass Q-TOF LC/MS (ESI) and are reported as m/z (relative intensity). Electroanalytical measurements were performed on a CHI620E electrochemical workstation using a silver wire quasi-reference electrode, a platinum disk working electrode and a Pt wire auxiliary electrode in a three-electrode cell under an atmosphere of nitrogen. […] All potentials listed herein were determined by differential pulse voltammetry and referenced to a saturated calomel electrode (SCE) by shifting ferrocene^0/+ to 0.435 V (DMSO) (Aranzaes et al., 2006). Spectroelectrochemistry measurements were obtained at ambient temperature with a custom designed three-electrode cell using Hewlett-Packard 8452A diode array spectrophotometer and CHI620E. Elemental analyses were performed by Midwest Microlab, LLC in Indianapolis, Ind. […] Trypsin (Hyclone SH30236.01) and Dulbecco's Phosphate Buffer Saline (Sigma R5886) were used for general cell maintenance and harvesting. Cell lines were obtained from the ATCC (A549 and PC-3) and Prof. Zahid Siddik at MD Anderson (A2780 and A2780CP). Thiazolyl blue tetrazolium bromide (Alfa Aesar L11939) was used for cell proliferation assays. Cell culture plastic ware consisted of generic T-75 flasks, 80.5 mm diameter culture dishes, and treated 96-well plates."}}}
{"smiles": "Cc1cc(C)c(-n2c3c([n+](-c4c(C)cc(C)cc4C)[c]2[Au-][c]2n(-c4c(C)cc(C)cc4C)c4c([n+]2-c2c(C)cc(C)cc2C)C(=O)c2ccccc2C4=O)C(=O)c2ccccc2C3=O)c(C)c1.[Cl][Ag-][Cl]", "note": "[Compound 1, [Bis(1,3-dimesityl-4,5-naphthoquino-imidazol-2-ylidene)-gold(I)] [Silver(I)dichloride]]", "values": [{"measurement": "IC50", "setting": "[1]", "value": "26 ± 7", "unit": "nM"}, {"measurement": "toxic effect relative to vehicle", "setting": "zebrafish embryos/larvae; 0.5 μM", "value": "no observable toxic effect"}, {"measurement": "lethality", "setting": "zebrafish embryos/larvae; concentrations above 1 μM", "value": 100, "unit": "%"}, {"measurement": "LD50", "setting": "zebrafish embryos/larvae; zebrafish embryos/larvae", "value": 0.75, "unit": "µM"}, {"measurement": "intracellular Au levels (ICP-MS)", "setting": "A549 lung cancer cells", "value": "identical"}, {"measurement": "E1/2 (V) DPV, first reduction, formation of semiquinone radical", "setting": "[2]", "value": "−0.42", "unit": "V"}, {"measurement": "E1/2^b (V) DPV, second reduction, formation of quinone dianion", "setting": "[2]", "value": "−1.31", "unit": "V"}]}
